Laboratory results from patent US9023789B2, “Amylin analogs and pharmaceutical compositions thereof” (Novo Nordisk A/S, priority 2012, dated 2015).
pEC50, pIC50: −log10 of the molar value. ≈ marks a conversion by molar mass, not a printed value. Like-named read-outs stand apart in the source and are kept apart here. Numbered stars: 1 amine (or outer) side, 2 acyl side, 3 side chain; on linkers, the order of the positions; unused ones are H or OH. Bridge positions count the residues as written; N and C are the ends. Side chains are listed from the residue outwards. Peptide text beside a SMILES is read from it. * marks the point of attachment. C20 diacid = O=C(O)CCCCCCCCCCCCCCCCCCC(=O)*; γGlu = O=C(O)[C@H](CCC(=O)[*:2])N[*:1]; AEEA = NCCOCCOCC(=O)O

Tests used:
[1] = molecular target: T1, rat amylin receptor (rat calcitonin receptor + rat RAMP 3) (Rattus norvegicus, UniProt P32214+Q9JJ73); test: ASSAY (VI) binding to the rat amylin receptor; details: for pIC50: binding to rat amylin receptor, read-out: rAmylin-R bind IC50
T1 construct: expressed in transfected cells; host or cells: BHK tk'ts 13 (transient, FuGENE 6), membranes
T1 sequence (P32214 25-479 isoform P32214-2 limits assumed): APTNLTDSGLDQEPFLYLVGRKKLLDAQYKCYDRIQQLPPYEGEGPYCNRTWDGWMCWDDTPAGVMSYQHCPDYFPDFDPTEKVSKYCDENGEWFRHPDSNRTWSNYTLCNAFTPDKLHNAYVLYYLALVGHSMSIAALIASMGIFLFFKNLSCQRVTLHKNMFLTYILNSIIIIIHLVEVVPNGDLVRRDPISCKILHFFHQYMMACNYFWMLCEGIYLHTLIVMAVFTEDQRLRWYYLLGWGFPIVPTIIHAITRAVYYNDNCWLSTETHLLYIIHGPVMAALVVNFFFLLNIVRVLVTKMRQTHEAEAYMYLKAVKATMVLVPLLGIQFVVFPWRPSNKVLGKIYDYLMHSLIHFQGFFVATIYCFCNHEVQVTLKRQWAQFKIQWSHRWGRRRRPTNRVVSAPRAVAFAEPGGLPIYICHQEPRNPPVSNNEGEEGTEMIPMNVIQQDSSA
T1 sequence (Q9JJ73 23-147 partner): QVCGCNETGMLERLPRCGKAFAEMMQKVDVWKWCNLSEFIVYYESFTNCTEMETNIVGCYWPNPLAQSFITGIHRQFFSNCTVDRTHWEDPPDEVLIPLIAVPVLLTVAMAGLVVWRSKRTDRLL
Procedure, shortened: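 Binding to the rat amylin receptor was determined with membrane preparations. The receptor was expressed by transiently transfecting BHK tk′ts 13 cells with rat calcitonin receptor, using FuGENE® 6 (Roche) according to the manufacturer's recommendations. Roughly 48 hours later the cells were harvested and their membranes isolated.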

[2] = ASSAY (IV) determination of solubility; assay type: physicochemical
Procedure, shortened: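 Dissolve polypeptide in water ([…] stock); combine 1:1 with each 100 mM buffer (glycylglycine pH 3.0/4.0/5.0; bistrispropane pH 6.0/6.5/7.0/7.5/8.0); hold 18 hours at room temperature; centrifuge; quantify polypeptide by UPLC.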

[3] = molecular target: T2, human amylin receptor (membranes from Amylin 3(a)/CRE-luc cells) (Homo sapiens, UniProt O60896+P30988); test: ASSAY (V) binding to the human amylin receptor (SPA, 125I-rat amylin); details: for pIC50: Table 4, read-out: hAmylin-R bind IC50;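 on all read-outs here: competition binding of cell membranes (35 ng/µL) mixed with SPA beads in 384-well plates at 40 µL total volume, read by scintillation counting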
T2 construct: expressed in transfected cells
T2 sequence (P30988 25-474): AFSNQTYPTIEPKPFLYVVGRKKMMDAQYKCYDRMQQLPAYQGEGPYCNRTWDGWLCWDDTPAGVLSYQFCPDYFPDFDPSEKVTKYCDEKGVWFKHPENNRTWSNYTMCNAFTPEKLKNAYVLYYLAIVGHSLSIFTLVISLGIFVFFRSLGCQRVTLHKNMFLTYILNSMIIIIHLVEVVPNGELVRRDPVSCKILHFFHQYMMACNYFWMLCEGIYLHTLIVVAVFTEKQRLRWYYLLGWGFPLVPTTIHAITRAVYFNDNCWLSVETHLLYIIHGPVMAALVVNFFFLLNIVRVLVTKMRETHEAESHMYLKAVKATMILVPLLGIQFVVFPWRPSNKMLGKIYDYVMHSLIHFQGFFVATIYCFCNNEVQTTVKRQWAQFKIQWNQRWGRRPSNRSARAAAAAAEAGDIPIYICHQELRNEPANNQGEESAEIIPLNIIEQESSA
T2 sequence (O60896 24-148 partner): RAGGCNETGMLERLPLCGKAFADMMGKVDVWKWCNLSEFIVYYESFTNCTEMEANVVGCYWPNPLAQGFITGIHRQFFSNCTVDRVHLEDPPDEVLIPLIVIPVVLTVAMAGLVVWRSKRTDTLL

[4] = molecular target: T3, human calcitonin receptor (Homo sapiens, UniProt P30988); test: ASSAY (VII) binding to the human calcitonin receptor (SPA, 125I-Calcitonin); details: read-out: hCTR bind IC50;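 further: cell membranes (35 ng/µL) combined with SPA beads in 40 µL of pH 7.4 Hepes buffer, 384-well format, signal counted on a TopCounter instrument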
T3 construct: expressed in transfected cells
T3 sequence (P30988 25-474): T2 sequence (P30988 25-474)

[5] = molecular target: T4, human calcitonin (a) receptor in BHK570 cells (Homo sapiens, UniProt P30988); test: ASSAY (II)a functional assay, human calcitonin receptor (CRE luciferase); assay type: cell-based; details: read-out: hCTR funct. EC50
T4 construct: expressed in transfected cells
T4 sequence (P30988 25-474): T2 sequence (P30988 25-474)
Procedure, shortened: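 BHK cells stably carrying a CRE-luciferase reporter plus calcitonin receptor, or calcitonin receptor with RAMP-3 for the amylin 3(a) receptor, were seeded and kept overnight at 37° C. Compounds were added in assay medium with 10% FBS and 10 mM Hepes, pH 7.4, for 3 hours at 37° C, then luminescence was counted.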

[6] = molecular target: T5, rat calcitonin receptor (Rattus norvegicus, UniProt P32214); test: ASSAY (VIII) binding to the rat calcitonin receptor; details: Table 7, read-out: rCTR bind IC50
T5 construct: expressed in transfected cells; host or cells: BHK tk'ts 13 (transient, FuGENE 6), membranes
T5 sequence (P32214 25-479 isoform P32214-2 limits assumed): T1 sequence (P32214 25-479 isoform P32214-2 limits assumed)
Procedure, shortened: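 Rat calcitonin receptor is expressed transiently in BHK tk′ts 13 cells cultured in DMEM with 10% FBS. Roughly two days (approximately 48 hours) post-transfection, cells are harvested for membrane preparation.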

[7] = Table 7, rat binding selectivity, rCTR IC50 / rAmylin-R IC50
[8] = Table 7a (preferred compounds), rat binding selectivity, rCTR IC50 / rAmylin-R IC50
[9] = ratio of rCTR bind IC50 to rAmylin-R bind IC50
[10] = bistrispropane buffer, pH 6.5, read-out: Solubility pH 6.5 Concentration
[11] = bistrispropane buffer, pH 7.5, read-out: Solubility pH 7.5 Concentration
[12] = bistrispropane buffer, pH 6.0, read-out: Solubility pH 6.0 Concentration
[13] = bistrispropane buffer, pH 7.0, read-out: Solubility pH 7.0 Concentration
[14] = bistrispropane buffer, pH 8.0, read-out: Solubility pH 8.0 Concentration
[15] = glycylglycine buffer, pH 3.0, read-out: Solubility pH 3.0 Concentration
[16] = glycylglycine buffer, pH 4.0, read-out: Solubility pH 4.0 Concentration
[17] = glycylglycine buffer, pH 5.0, read-out: Solubility pH 5.0 Concentration
[18] = Table 5, selectivity, hCTR bind IC50 / hAmylin-R bind IC50
[19] = Table 5a, selectivity, hCTR bind IC50 / hAmylin-R bind IC50
[20] = Table 5b, selectivity, hCTR bind IC50 / hAmylin-R bind IC50
[21] = Table 5c, selectivity, hCTR bind IC50 / hAmylin-R bind IC50
[22] = Table 7, human binding selectivity, included for comparison
[23] = Table 7a (preferred compounds), human binding selectivity, included for comparison
[24] = ratio of human calcitonin receptor binding IC50 to human amylin receptor binding IC50

pIC50 ([1]; Table 7)	Ratio rCT/rAmylin binding [1, 7]	Ratio rCT/rAmylin binding [1, 8]	Ratio rCT/rAmylin binding [1, 9]	solubility at 18 h [2, 10] [µM]	solubility at 18 h [2, 11] [µM]	solubility at 18 h [2, 12] [µM]	solubility at 18 h [2, 13] [µM]	solubility at 18 h [2, 14] [µM]	solubility at 18 h [2, 15] [µM]	solubility at 18 h [2, 16] [µM]	solubility at 18 h [2, 17] [µM]	pIC50 [3]	Ratio hCT/hAmylin binding [3, 18]	Ratio hCT/hAmylin binding [3, 19]	Ratio hCT/hAmylin binding [3, 20]	Ratio hCT/hAmylin binding [3, 21]	Ratio hCT/hAmylin binding [3, 22]	Ratio hCT/hAmylin binding [3, 23]	Ratio hCT/hAmylin binding [3, 24]	SMILES	other results
8.50	46.5	46.5	46.5	≥ 200	≥ 200	≥ 200	≥ 200	≥ 200	≥ 200	≥ 200	≥ 200	9.06	91.8	91.8	91.8	91.8	91.8	91.8	91.8	CC[C@H](C)[C@H](NC(=O)[C@H](C)NC(=O)CNC(=O)[C@H](Cc1ccccc1)NC(=O)[C@H](CC(N)=O)NC(=O)[C@@H]1CCCN1C(=O)[C@H](CO)NC(=O)[C@H](CO)NC(=O)[C@H](Cc1c[nH]cn1)NC(=O)[C@H](CCCNC(=N)N)NC(=O)[C@H](CC(C)C)NC(=O)[C@H](Cc1ccccc1)NC(=O)[C@H](Cc1c[nH]cn1)NC(=O)[C@H](C)NC(=O)[C@H](CC(C)C)NC(=O)[C@H](CCCNC(=N)N)NC(=O)[C@H](CCC(N)=O)NC(=O)[C@@H](NC(=O)[C@H](C)NC(=O)[C@@H]1CSSC[C@H](NC(=O)[C@@H](N)CCCCNC(=O)CC[C@H](NC(=O)CCCCCCCCCCCCCCCCCCC(=O)O)C(=O)O)C(=O)N[C@@H](CC(N)=O)C(=O)N[C@@H]([C@@H](C)O)C(=O)N[C@@H](C)C(=O)N[C@@H]([C@@H](C)O)C(=O)N1)[C@@H](C)O)C(=O)N1CCC[C@H]1C(=O)N[C@@H](CO)C(=O)N[C@@H](CO)C(=O)N[C@H](C(=O)N[C@@H](CC(N)=O)C(=O)N[C@H](C(=O)NCC(=O)N[C@@H](CCCNC(=N)N)C(=O)N[C@@H](CC(N)=O)C(=O)N[C@H](C(=O)N[C@@H](Cc1ccc(O)cc1)C(N)=O)[C@@H](C)O)C(C)C)[C@@H](C)O [Example 85] (H-K([γGlu-C20 diacid])CNTATCATQRLAHFLRHSSPNFGAIPSSTNVGRNTY-NH2; disulfide 2-7 (inferred); N-terminus assumed)	pIC50 [4]: 7.09; pEC50 [5]: 8.41; pIC50 [6]: 6.84
9.42	137.4	137.4	137.4	174 (≈ 791 µg/mL)	112 (≈ 509 µg/mL)	≥ 200	182 (≈ 827 µg/mL)	32 (≈ 145 µg/mL)	174 (≈ 791 µg/mL)	≥ 200	≥ 200	9.06	48.6	48.6	48.6	48.6	48.6	48.6	48.6	CC[C@H](C)[C@H](NC(=O)[C@H](C)NC(=O)CNC(=O)[C@H](Cc1ccccc1)NC(=O)[C@H](CC(N)=O)NC(=O)[C@@H]1CCCN1C(=O)[C@H](CO)NC(=O)[C@H](CO)NC(=O)[C@H](Cc1c[nH]cn1)NC(=O)[C@H](CCCNC(=N)N)NC(=O)[C@H](CC(C)C)NC(=O)[C@H](Cc1ccccc1)NC(=O)[C@H](CC(N)=O)NC(=O)[C@H](C)NC(=O)[C@H](CC(C)C)NC(=O)[C@H](CCCNC(=N)N)NC(=O)[C@H](CCC(N)=O)NC(=O)[C@@H](NC(=O)[C@H](C)NC(=O)[C@@H]1CSSC[C@H](NC(=O)[C@@H](N)CCCCNC(=O)CC[C@H](NC(=O)CC[C@H](NC(=O)CCCCCCCCCCCCCCCCCCC(=O)O)C(=O)O)C(=O)O)C(=O)N[C@@H](CC(N)=O)C(=O)N[C@@H]([C@@H](C)O)C(=O)N[C@@H](C)C(=O)N[C@@H]([C@@H](C)O)C(=O)N1)[C@@H](C)O)C(=O)N1CCC[C@H]1C(=O)N[C@@H](CO)C(=O)N[C@@H](CO)C(=O)N[C@H](C(=O)N1CCC[C@H]1C(=O)N[C@H](C(=O)NCC(=O)N1CCC[C@H]1C(=O)N[C@@H](CCCNC(=N)N)C(=O)N[C@H](C(=O)N[C@@H](Cc1ccc(O)cc1)C(N)=O)[C@@H](C)O)C(C)C)[C@@H](C)O [Example 119] (H-K([γGlu-γGlu-C20 diacid])CNTATCATQRLANFLRHSSPNFGAIPSSTPVGPRTY-NH2; disulfide 2-7)	pIC50 [4]: 7.37; pEC50 [5]: 8.06; pIC50 [6]: 7.28
9.16	56.8	56.8	56.8	≥ 200	≥ 200	≥ 200	≥ 200	140 (≈ 638 µg/mL)	≥ 200	≥ 200	≥ 200	9.67	80.0	80.0	80.0	80.0	80.0	80.0	80.0	CC[C@H](C)[C@H](NC(=O)[C@H](C)NC(=O)CNC(=O)[C@H](Cc1ccccc1)NC(=O)[C@H](CC(N)=O)NC(=O)[C@@H]1CCCN1C(=O)[C@H](CO)NC(=O)[C@H](CO)NC(=O)[C@H](Cc1c[nH]cn1)NC(=O)[C@H](CCCNC(=N)N)NC(=O)[C@H](CC(C)C)NC(=O)[C@H](Cc1ccccc1)NC(=O)[C@H](CC(N)=O)NC(=O)[C@H](C)NC(=O)[C@H](CC(C)C)NC(=O)[C@H](CCCNC(=N)N)NC(=O)[C@H](CCC(N)=O)NC(=O)[C@@H](NC(=O)[C@H](C)NC(=O)[C@@H]1CSSC[C@H](NC(=O)[C@@H](N)CCCCNC(=O)COCCOCCNC(=O)CC[C@H](NC(=O)CCCCCCCCCCCCCCCCCCC(=O)O)C(=O)O)C(=O)N[C@@H](CC(N)=O)C(=O)N[C@@H]([C@@H](C)O)C(=O)N[C@@H](C)C(=O)N[C@@H]([C@@H](C)O)C(=O)N1)[C@@H](C)O)C(=O)N1CCC[C@H]1C(=O)N[C@@H](CO)C(=O)N[C@@H](CO)C(=O)N[C@H](C(=O)N[C@@H](CC(N)=O)C(=O)N[C@H](C(=O)NCC(=O)N[C@@H](Cc1c[nH]cn1)C(=O)N[C@@H](CC(N)=O)C(=O)N[C@H](C(=O)N[C@@H](Cc1ccc(O)cc1)C(N)=O)[C@@H](C)O)C(C)C)[C@@H](C)O [Example 76] (H-K([AEEA-γGlu-C20 diacid])CNTATCATQRLANFLRHSSPNFGAIPSSTNVGHNTY-NH2; disulfide 2-7; N-terminus assumed)	pIC50 [4]: 7.76; pEC50 [5]: 8.13; pIC50 [6]: 7.41
